The values that follow come from BindingDB's records for doi:10.1074/jbc.M807947200 (National Yang-Ming University, 2009).

The structures appear in SMILES notation.

One assay concerns the target Genome polyprotein (Coxsackievirus B3 (strain Nancy), UniProt P03313). Briefly: Enzyme Inhibition Assay. The following applies: pH 6.5; 25 °C. How it is done:
(§1) Peptidomimetic inhibitors against CVB3 3Cpro and SARS-CoV 3CLpro. The inhibition constant of SARS 3CLpro was analyzed with reverse-phase HPLC using a C-18 column.

Assay [1] deals with Replicase polyprotein 1ab (Severe acute respiratory syndrome coronavirus, UniProt P0C6X7). Kind of assay: Enzyme Inhibition Assay. The following applies: pH 6.5; 25 °C. How it is done: as §1

Genome polyprotein, sequence (P03313 1541-1723 limits assumed): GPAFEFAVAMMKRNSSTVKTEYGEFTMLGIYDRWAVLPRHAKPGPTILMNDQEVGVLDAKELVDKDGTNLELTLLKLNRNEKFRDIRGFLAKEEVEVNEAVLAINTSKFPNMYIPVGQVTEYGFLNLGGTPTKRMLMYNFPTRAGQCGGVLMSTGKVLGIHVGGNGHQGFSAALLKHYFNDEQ

Consider `CC(=O)CC=C(C[C@@H]1CCNC1=O)NC(=O)[C@H](CC(C)C)NC(=O)[C@H](CNC(=O)C(C)(C)C)NC(=O)OCc1ccccc1` [TG-0204998], for which the inhibitory constant (Ki) – broadly, a dissociation constant, usually derived from enzyme kinetics or from competition with a known ligand – at Genome polyprotein was 800 nM.
At Genome polyprotein, `CC(C)C[C@H](NC(=O)[C@@H](NC(=O)OCc1ccccc1)C(C)OC(C)(C)C)C(=O)NC(=CCC(=O)C1CC1)C[C@@H]1CCNC1=O` (stereo partly specified) [TG-0205486] returned an inhibition constant (Ki) of 400 nM.
Turning to `C[C@H](OC(C)(C)C)[C@H](NC(=O)OCc1ccccc1)C(=O)N[C@@H](CC1CCCCC1)C(=O)N[C@H](C=O)C[C@@H]1CCNC1=O` [benzyl N-[(1S,2S)-2-(tert-butoxy)-1-{[(1S)-2-cyclohexyl-1-{[(2S)-1-oxo-3-[(3S)-2-oxopyrrolidin-3-yl]propan-2-yl]carbamoyl}ethyl]carbamoyl}propyl]carbamate], the inhibition constant (Ki) in assay [1] stood at 54 nM; at Genome polyprotein, 2500 nM.
Turning to `CCOC(=O)/C=C/[C@H](C[C@@H]1CCNC1=O)NC(=O)[C@H](CC(C)C)NC(=O)[C@@H](NC(=O)OCc1ccccc1)C(C)OC(C)(C)C` (stereo partly drawn) [ethyl (2E,4S)-4-[(2S)-2-[(2S,3S)-2-{[(benzyloxy)carbonyl]amino}-3-(tert-butoxy)butanamido]-4-methylpentanamido]-5-[(3S)-2-oxopyrrolidin-3-yl]pent-2-enoate], the results for the Ki (in assay [1]; on Genome polyprotein) were 58 nM and 1500 nM, respectively.
